This is an account of results in patent US20220315968A1, “PEPTIDES AND METHODS FOR THE CARBON-CARBON BOND FORMATION” (Max-Planck-Gesellschaft zur Förderung der Wissenschaften …, priority 2019, published 2022).

Experiment [1] concerns OXS-OXCMe-Y497A-YciA cascade. In kind it is biochemical. As to conditions: 25 mM aldehyde, 10 mM disodium oxalate, 10 mM ATP, OXS 5 μM, OXCMe-Y497A 5 μM, YciA 2 μM; chiral HPLC. On the procedure: Samples were diluted 1:10 in H2O. UPLC-high resolution MS analyses were performed on an Agilent 6550 iFunnel QTOF LC/MS system equipped with an electrospray ionization source to negative ionization mode. The analytes were isocratically chromatographed on a chiral column (100 mm×2.1 mm, particle size 2.7 μm, Poroshell 120 Chiral-T, Agilent) kept at ambient temperature using a mobile phase system comprised of 30:70 20 mM ammonium formate pH 4/methanol at a flow rate of 250 μl/min for 10 min. Samples were held at 10° C. and injection volume was 1 μl. […] MS data were acquired with a scan range of 100-1100 m/z. For quantification the calculated m/z value of [M-H]^− was used to obtain the extracted ion count from the total ion count.
0.5 mM ADP, 0.15 mM ThDP, 0.5 mM CoA, 10 mM ATP, 25 mM benzaldehyde, 5 μM OXS, 5 μM OXC and 2 μM YciA. The reaction was started by adding 10 mM oxalate. As negative controls, YciA, OXS or OXC were omitted in separate reactions. Samples were taken after 0, 0.05, 0.25, 0.66, 1, 2, 3, 22 hours and analyzed with the LC-MS detection of mandelic acid derivatives.
The aldehyde substrate screen of the OXS-OXCMe-Y497A-YciA cascade was carried out as described above (example 13), except that the aromatic aldehydes were prepared as 33 mM stocks in 20 vol % DMSO and diluted to final concentration of 25 mM into the assay. Samples were analyzed with the mandelic acid derivatives method described above. Mandelic acid (3a), 4-chloromandelic acid (3c), 2-chloromandelic acid (3d) and 3-phenyllactic acid (3b) were quantified by comparison to commercial standards.

Experiment [2] relates to OXS-OXCMe-YciA cascade with FRC. Put plainly: OXS-OXCMe-Y497A-YciA cascade with FRC (α-hydroxy carboxylic acid from oxalate, one pot). In kind it is biochemical. As to conditions: 2 μM FRC, 7.6 mM benzaldehyde or phenylacetaldehyde, 10 μM OXCMe-Y497A. Here is the method: 0.5 mM ADP, 0.15 mM ThDP, 0.5 mM CoA, 10 mM ATP, 7.6 mM benzaldehyde or phenylacetaldehyde, 2 μM FRC, 2 μM YciA, 10 μM OXCMe-Y497A and 5 μM OXS. The reaction was started by adding 10 mM disodium oxalate. Samples were taken after 0, 15, 30, 60 min and analyzed with the mandelic acid derivatives method described above.
0.5 mM ADP, 0.15 mM ThDP, 0.5 mM CoA, 10 mM ATP, 7.6 mM benzaldehyde or phenylacetaldehyde, 2 μM FRC (Formyl-CoA:oxalate CoA-transferase from Oxalobacter formigenes EC 2.8.3.16), 2 μM YciA, 10 μM OXCMe-Y497A and 5 μM OXS were mixed and the reaction was initiated by the addition of 10 mM disodium oxalate. For the negative control FRC was omitted in a separate reaction. Samples were taken after 0, 15, 30, 60 min and analyzed with the mandelic acid derivatives method described above.

A further experiment deals with T1, HACLHs (Homo sapiens, UniProt Q9UJ83).
T1 construct: His-tag (from vector pET-16b); made in house; host or cells: E. coli ArcticExpress (DE3)
As to the kind of experiment: Aldehyde and ketone screen with HACLHs (carboligation with formyl-CoA, LC-MS of CoA esters). In kind it is biochemical. As to conditions: 10 mM aldehyde, 1 mM formyl-CoA, 5 μM enzyme, 1 h, relative to the comparison of OXC and HACL, n.d. = product not detected. Here is the method: Samples were diluted 1:10 in H2O. […] Standard injection volume was 1 μl.
0.5 mM ADP, 0.15 mM ThDP.

The test system of another experiment is OXCMe. Put plainly: OXCMe aldehyde and ketone screen (carboligation with formyl-CoA, LC-MS of CoA esters). Particulars: 10 mM aldehyde, 1 mM formyl-CoA, 5 μM enzyme, 1 h, relative to the comparison of OXC and HACL, n.d. = product not detected.
The target in a further experiment is T2, YciA (Escherichia coli, UniProt P0A8Z0).
T2 construct: His-tag (ASKA clone); made in house; host or cells: E. coli BL21 (DE3)
As to the kind of experiment: YciA substrate screen (thioesterase activity towards oxalyl-CoA, formyl-CoA, mandelyl-CoA). Particulars: 2 μM YciA, 0.5 mM CoA ester, 30° C., pH 6.8. In kind it is biochemical, E. coli. On the procedure:
0.5 mM ADP, 0.15 mM ThDP and 25 mM benzaldehyde, 2 μM YciA (A) or no YciA (B). The reaction was started by adding either 0.5 mM formyl-CoA or 0.5 mM oxalyl-CoA or 0.5 mM mandelyl-CoA. Samples were taken after 0, 1, 5 and 30 minutes and analyzed with the LC-MS detection of CoA esters. CoA esters were quantified by comparison to synthetic standards of formyl-CoA, oxalyl-CoA and mandelyl-CoA, respectively. Error bars show standard deviation of two.
Thioesterase activity of YciA towards oxalyl-CoA, formyl-CoA and racemic mandelyl-CoA. […] 0.5 mM ADP, 0.15 mM ThDP and 25 mM benzaldehyde, 2 μM YciA (A) or no YciA (B). The reaction was started by adding either 0.5 mM formyl-CoA or 0.5 mM oxalyl-CoA or 0.5 mM mandelyl-CoA. Samples were taken after 0, 1, 5 and 30 minutes and analyzed with the LC-MS detection of CoA esters. CoA esters were quantified by comparison to synthetic standards of formyl-CoA, oxalyl-CoA and mandelyl-CoA, respectively.

T1 sequence (Q9UJ83 whole entry): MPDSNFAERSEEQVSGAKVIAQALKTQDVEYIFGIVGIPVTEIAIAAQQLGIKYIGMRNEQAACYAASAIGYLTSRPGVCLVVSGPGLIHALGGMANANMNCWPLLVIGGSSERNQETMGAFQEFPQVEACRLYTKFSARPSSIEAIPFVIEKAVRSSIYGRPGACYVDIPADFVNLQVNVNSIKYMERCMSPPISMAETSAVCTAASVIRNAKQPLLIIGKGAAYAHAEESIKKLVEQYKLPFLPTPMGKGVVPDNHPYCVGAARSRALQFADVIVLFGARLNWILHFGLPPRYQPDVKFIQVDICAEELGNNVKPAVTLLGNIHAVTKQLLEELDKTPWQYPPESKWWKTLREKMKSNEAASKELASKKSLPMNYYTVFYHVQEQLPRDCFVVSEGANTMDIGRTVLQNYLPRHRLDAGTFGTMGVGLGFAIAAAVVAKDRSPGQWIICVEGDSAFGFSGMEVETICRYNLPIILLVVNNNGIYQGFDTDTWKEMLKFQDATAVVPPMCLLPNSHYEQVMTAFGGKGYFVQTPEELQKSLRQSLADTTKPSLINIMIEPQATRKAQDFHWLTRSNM
T2 sequence (P0A8Z0 whole entry): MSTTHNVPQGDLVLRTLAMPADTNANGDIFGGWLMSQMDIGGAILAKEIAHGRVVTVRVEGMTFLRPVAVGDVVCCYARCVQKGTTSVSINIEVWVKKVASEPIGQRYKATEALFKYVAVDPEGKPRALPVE

`O=C(O)C(O)Cc1ccccc1` (racemic) [3-phenyllactic acid]: the “Conversion [%]” value in experiment [1] was 58%. For the same compound, the “increase of product formation rate by addition of FRC” value in experiment [2] was determined as 2.3 fold.
As for `O=C(O)C(O)c1ccc(Cl)cc1` (racemic) [4-chloromandelic acid], the “Conversion [%]” value in experiment [1] turned out to be 57%.
The same measure, in the same setting: the same measure for `O=C(O)[C@@H](O)c1ccccc1Cl` [2-chloromandelic acid, (S)-2-chloromandelic acid]: 93%.
For the compound `CCC(O)C(=O)SCCNC(=O)CCNC(=O)[C@H](O)C(C)(C)COP(=O)(O)OP(=O)(O)OC[C@H]1O[C@@H](n2cnc3c(N)ncnc32)[C@H](O)[C@@H]1OP(=O)(O)O` (some centres unmarked) [2-hydroxybutyryl-CoA], on HACLHs, the HACLHs relative activity stood at 100%. In the experiment on OXCMe, this compound had an OXCMe relative activity of 5%.
The matching figures for `CC(C)(COP(=O)(O)OP(=O)(O)OC[C@H]1O[C@@H](n2cnc3c(N)ncnc32)[C@H](O)[C@@H]1OP(=O)(O)O)[C@@H](O)C(=O)NCCC(=O)NCCSC(=O)C(O)CCC(=O)O` (some centres unmarked) [2-hydroxyglutaryl-CoA]: 100% and 1%.
In the case of `CC(C)(COP(=O)(O)OP(=O)(O)OC[C@H]1O[C@@H](n2cnc3c(N)ncnc32)[C@H](O)[C@@H]1OP(=O)(O)O)[C@@H](O)C(=O)NCCC(=O)NCCSC=O` [formyl-CoA], the “thioesterase activity of YciA towards the CoA ester” value (“thioesterase activity” for short) on YciA is on record as “low activity”.
For `CC(C)(COP(=O)(O)OP(=O)(O)OC[C@H]1O[C@@H](n2cnc3c(N)ncnc32)[C@H](O)[C@@H]1OP(=O)(O)O)[C@@H](O)C(=O)NCCC(=O)NCCSC(=O)C(O)CO` (some centres unmarked) [glyceryl-CoA], the HACLHs relative activity at HACLHs is recorded as 100%. The compound also returned an OXCMe relative activity in the experiment with OXCMe of 1%.
Turning to `CC(C)(COP(=O)(O)OP(=O)(O)OC[C@H]1O[C@@H](n2cnc3c(N)ncnc32)[C@H](O)[C@@H]1OP(=O)(O)O)[C@@H](O)C(=O)NCCC(=O)NCCSC(=O)CO` [glycolyl-CoA], on HACLHs, the HACLHs relative activity was 11%. For the same compound, in the experiment on OXCMe, the OXCMe relative activity worked out at 100%.
In turn, `CC(O)C(=O)SCCNC(=O)CCNC(=O)[C@H](O)C(C)(C)COP(=O)(O)OP(=O)(O)OC[C@H]1O[C@@H](n2cnc3c(N)ncnc32)[C@H](O)[C@@H]1OP(=O)(O)O` (some centres unmarked) [lactyl-CoA] registered an HACLHs relative activity at HACLHs of 100%. Besides, the OXCMe relative activity with OXCMe amounted to 74%.
As for `O=C(O)C(O)c1ccccc1` (centres unmarked) [mandelic acid], the “Conversion [%]” value in experiment [1] was 75%. Moreover, the “increase of product formation rate by addition of FRC” value in experiment [2] is listed as 1.4 fold.
For `CC(C)(COP(=O)(O)OP(=O)(O)OC[C@H]1O[C@@H](n2cnc3c(N)ncnc32)[C@H](O)[C@@H]1OP(=O)(O)O)[C@@H](O)C(=O)NCCC(=O)NCCSC(=O)C(O)c1ccccc1` (some centres unmarked) [mandelyl-CoA], the “thioesterase activity” value at YciA is on record as “relatively high”. The compound also gave an HACLHs relative activity at HACLHs of 3%. In addition, the OXCMe relative activity with OXCMe is listed as 100%.
Consider `CC(C)(COP(=O)(O)OP(=O)(O)OC[C@H]1O[C@@H](n2cnc3c(N)ncnc32)[C@H](O)[C@@H]1OP(=O)(O)O)[C@@H](O)C(=O)NCCC(=O)NCCSC(=O)C(=O)O` [oxalyl-CoA], for which the “thioesterase activity” value on YciA is given as “no activity”.
For the compound `CC(C)(COP(=O)(O)OP(=O)(O)OCC1OC(n2cnc3c(N)ncnc32)C(O)C1OP(=O)(O)O)C(O)C(=O)NCCC(=O)NCCSC(=O)C(O)Cc1ccccc1` (centres unmarked) [phenyllactyl-CoA], the HACLHs relative activity at HACLHs turned out to be 100%. For the same compound, the OXCMe relative activity in the experiment on OXCMe worked out at 22%.
